Values of other authors in publication PMC11776332 (Virology Journal, 2025).

Test system: HIV-1

- IC50 compared with CV-10240: lower IC50 than CV-10240
SMILES: C=C(C)[C@@H]1CC[C@]2(NCCN3CCS(=O)(=O)CC3)CC[C@]3(C)[C@H](CC[C@@H]4[C@@]5(C)CC=C(C6=CC[C@@](CF)(C(=O)O)CC6)C(C)(C)[C@@H]5CC[C@]43C)[C@@H]12 [GSK3640254]
